Broadly, the IC50 is the concentration that gives 50% inhibition. Broadly, the Ki is the dissociation constant of the complex between target and ligand, obtained from inhibition or displacement.

Data set [1] concerns the target 5-hydroxytryptamine receptor 4 (Cavia porcellus, UniProt O70528). The class given is cell membranes, Dunkin-Hartley, Striatum, Membrane. Further: in other assays of this panel Not Active means under 50% inhibition at 10 µM.
Data set [2] in a line: DRUGMATRIX: Sigma2 radioligand binding (ligand: [3H] Ifenprodil). In kind it is cell membranes, Rattus norvegicus, Wistar, Brain, Membrane. Conditions: Not Active = under 50% inhibition at 10 µM.
The target of data set [3] is T1, Substance-K receptor (Homo sapiens, UniProt P21452). Further: in other assays of this panel Not Active means under 50% inhibition at 10 µM.
T1 sequence (P21452 whole entry): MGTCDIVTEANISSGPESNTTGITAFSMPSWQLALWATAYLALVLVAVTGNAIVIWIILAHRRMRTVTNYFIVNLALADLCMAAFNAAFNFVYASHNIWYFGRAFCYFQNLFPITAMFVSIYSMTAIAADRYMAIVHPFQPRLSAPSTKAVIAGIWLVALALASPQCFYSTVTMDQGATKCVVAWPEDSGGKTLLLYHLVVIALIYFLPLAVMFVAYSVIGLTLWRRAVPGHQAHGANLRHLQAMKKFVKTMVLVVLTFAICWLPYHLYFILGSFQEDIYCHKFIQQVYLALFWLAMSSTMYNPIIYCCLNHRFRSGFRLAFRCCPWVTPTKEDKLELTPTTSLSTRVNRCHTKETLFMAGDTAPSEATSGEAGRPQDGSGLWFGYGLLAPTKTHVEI
In kind it is cell membranes, CHO, Membrane.

In data set [4] the target is C-C chemokine receptor type 2 (Homo sapiens, UniProt P41597). The class given is cell membranes, CHO-K1, Membrane. The following applies: cho-k1. Further: in other assays of this panel Not Active means under 50% inhibition at 10 µM.
Sequence of C-C chemokine receptor type 2 (P41597 whole entry): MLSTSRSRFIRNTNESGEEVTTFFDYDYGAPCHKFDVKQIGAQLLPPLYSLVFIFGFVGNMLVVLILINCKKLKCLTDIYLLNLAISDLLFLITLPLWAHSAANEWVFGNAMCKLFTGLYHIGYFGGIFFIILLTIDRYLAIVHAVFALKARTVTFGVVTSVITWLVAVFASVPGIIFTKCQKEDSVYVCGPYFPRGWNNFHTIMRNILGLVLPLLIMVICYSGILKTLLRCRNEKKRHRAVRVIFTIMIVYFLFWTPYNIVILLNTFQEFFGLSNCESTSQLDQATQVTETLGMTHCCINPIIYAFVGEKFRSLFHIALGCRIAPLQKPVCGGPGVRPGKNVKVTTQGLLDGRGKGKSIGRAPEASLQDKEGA
The target in data set [5] is T2, C-C chemokine receptor type 4 (Homo sapiens, UniProt P51679). Further: in other assays of this panel Not Active means under 50% inhibition at 10 µM.
T2 sequence (P51679 whole entry): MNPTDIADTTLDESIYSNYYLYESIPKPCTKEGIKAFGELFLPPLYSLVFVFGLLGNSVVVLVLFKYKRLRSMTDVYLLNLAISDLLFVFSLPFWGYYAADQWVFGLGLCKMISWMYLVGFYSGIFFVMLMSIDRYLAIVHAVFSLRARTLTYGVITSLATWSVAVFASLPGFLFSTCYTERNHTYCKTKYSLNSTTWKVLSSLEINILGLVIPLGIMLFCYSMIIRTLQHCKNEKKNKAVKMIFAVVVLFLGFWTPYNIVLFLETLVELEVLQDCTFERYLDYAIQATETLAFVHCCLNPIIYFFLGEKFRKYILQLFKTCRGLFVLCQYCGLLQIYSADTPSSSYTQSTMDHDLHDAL
The class given is cell membranes, Membrane. Conditions: chem-1.

Data set [6] deals with T3, D(4) dopamine receptor (Homo sapiens, UniProt P21917).
T3 sequence (P21917 whole entry): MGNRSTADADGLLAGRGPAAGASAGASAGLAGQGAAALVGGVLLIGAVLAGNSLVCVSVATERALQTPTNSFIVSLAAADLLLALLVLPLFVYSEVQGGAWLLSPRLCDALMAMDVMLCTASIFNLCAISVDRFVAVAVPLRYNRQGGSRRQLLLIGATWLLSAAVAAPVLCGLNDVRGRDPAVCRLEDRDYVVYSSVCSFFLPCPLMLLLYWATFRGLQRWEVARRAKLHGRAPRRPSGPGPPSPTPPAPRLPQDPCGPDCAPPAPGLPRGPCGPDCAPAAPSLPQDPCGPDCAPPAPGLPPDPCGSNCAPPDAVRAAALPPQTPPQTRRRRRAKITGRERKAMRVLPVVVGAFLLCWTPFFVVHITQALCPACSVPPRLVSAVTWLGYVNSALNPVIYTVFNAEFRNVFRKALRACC
As to the kind of experiment: DRUGMATRIX: Dopamine D4.2 radioligand binding (ligand: [3H] Spiperone). In kind it is cell membranes, CHO-K1, Membrane. Conditions: cho-k1; Not Active = under 50% inhibition at 10 µM.

Data set [7] addresses Sodium-dependent dopamine transporter (Homo sapiens, UniProt Q01959). As to the kind of experiment: DRUGMATRIX: Dopamine Transporter radioligand binding (ligand: [125I] RTI-55). The class given is cell membranes, CHO-K1, Membrane. The following applies: Not Active = under 50% inhibition at 10 µM.
The nature of data set [8]: DRUGMATRIX: Glutamate, Kainate radioligand binding (ligand: [3H] Kainic acid). The following applies: Not Active = under 50% inhibition at 10 µM. In kind it is cell membranes, Rattus norvegicus, Wistar, Brain, Membrane.
Data set [9] in a line: DRUGMATRIX: Glutamate, NMDA, Phencyclidine radioligand binding (ligand: [3H] TCP). The class given is cell membranes, Rattus norvegicus, Wistar, Cerebral cortex, Membrane. The following applies: Not Active = under 50% inhibition at 10 µM.
In data set [10] the target is Histamine H2 receptor (Homo sapiens, UniProt P25021). The class given is cell membranes, CHO-K1, Membrane. Further: in other assays of this panel Not Active means under 50% inhibition at 10 µM.
Sequence of Histamine H2 receptor (P25021 whole entry): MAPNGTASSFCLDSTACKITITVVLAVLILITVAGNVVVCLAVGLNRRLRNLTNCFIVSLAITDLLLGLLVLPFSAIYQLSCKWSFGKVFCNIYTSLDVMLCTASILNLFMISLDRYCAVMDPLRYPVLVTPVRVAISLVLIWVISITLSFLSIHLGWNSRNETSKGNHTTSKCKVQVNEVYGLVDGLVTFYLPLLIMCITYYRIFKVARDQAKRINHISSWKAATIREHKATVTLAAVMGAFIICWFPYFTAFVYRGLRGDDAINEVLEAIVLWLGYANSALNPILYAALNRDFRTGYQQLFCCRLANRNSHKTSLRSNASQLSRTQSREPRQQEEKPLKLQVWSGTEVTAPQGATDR
Data set [11] concerns the target T4, Leukotriene C4 synthase (Cavia porcellus, UniProt A6XA80).
T4 sequence (A6XA80 whole entry): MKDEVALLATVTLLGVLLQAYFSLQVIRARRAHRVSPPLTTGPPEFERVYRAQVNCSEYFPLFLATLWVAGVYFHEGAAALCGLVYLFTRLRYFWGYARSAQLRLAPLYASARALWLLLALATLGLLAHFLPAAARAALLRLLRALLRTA
As to the kind of experiment: biochemical. The class given is tissue-based, Lung.

Data set [12] has as its target T5, Muscarinic acetylcholine receptor M4 (Homo sapiens, UniProt P08173). Further: in other assays of this panel Not Active means under 50% inhibition at 10 µM.
T5 sequence (P08173 whole entry): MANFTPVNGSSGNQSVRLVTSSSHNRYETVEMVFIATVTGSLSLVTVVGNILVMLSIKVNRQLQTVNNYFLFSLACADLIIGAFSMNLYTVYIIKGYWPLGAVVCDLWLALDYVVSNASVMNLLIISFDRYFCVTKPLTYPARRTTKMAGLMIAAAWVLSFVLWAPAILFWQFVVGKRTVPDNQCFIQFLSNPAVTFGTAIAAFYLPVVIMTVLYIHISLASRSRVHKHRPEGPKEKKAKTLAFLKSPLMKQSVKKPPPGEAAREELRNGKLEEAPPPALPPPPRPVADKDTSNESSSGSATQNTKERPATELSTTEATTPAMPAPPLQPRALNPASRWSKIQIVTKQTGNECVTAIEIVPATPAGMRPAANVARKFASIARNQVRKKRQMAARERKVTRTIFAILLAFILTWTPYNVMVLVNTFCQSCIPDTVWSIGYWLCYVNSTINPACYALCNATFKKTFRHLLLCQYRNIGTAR
The class given is cell membranes, CHO-K1, Membrane.

Data set [13] is described as follows: DRUGMATRIX: Phosphodiesterase PDE3 enzyme inhibition (substrate: [3H]cAMP + cAMP). The class given is tissue-based, Homo sapiens. The following applies: platelet, Not Active = under 50% inhibition at 10 µM.
In data set [14] the target is Tyrosine-protein kinase Fyn (Homo sapiens, UniProt P06241). As to the kind of experiment: biochemical. In kind it is cell-based, Insect cells. Conditions: insect cells.
Sequence of Tyrosine-protein kinase Fyn (P06241 whole entry): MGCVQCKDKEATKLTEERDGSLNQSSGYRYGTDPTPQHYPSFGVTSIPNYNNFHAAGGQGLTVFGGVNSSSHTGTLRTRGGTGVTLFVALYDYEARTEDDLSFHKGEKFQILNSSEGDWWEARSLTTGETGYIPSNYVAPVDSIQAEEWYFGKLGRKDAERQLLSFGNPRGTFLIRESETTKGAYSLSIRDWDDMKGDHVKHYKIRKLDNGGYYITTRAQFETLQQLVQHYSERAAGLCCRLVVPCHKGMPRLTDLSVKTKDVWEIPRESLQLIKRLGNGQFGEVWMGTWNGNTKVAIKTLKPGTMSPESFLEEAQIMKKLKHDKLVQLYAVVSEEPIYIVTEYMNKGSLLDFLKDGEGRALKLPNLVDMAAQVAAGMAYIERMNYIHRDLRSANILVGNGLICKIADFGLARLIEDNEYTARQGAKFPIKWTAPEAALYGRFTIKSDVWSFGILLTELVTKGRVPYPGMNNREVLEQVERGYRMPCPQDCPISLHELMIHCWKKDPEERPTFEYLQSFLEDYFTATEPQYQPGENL
A short description of data set [15]: DRUGMATRIX: Purinergic P2X radioligand binding (ligand: [3H] alpha, beta-Methylene-ATP). Conditions: Not Active = under 50% inhibition at 10 µM. In kind it is cell membranes, Oryctolagus cuniculus, New Zealand albino, Urinary bladder, Membrane.
The target of data set [16] is Beta-3 adrenergic receptor (Homo sapiens, UniProt P13945). As to the kind of experiment: DRUGMATRIX: Adrenergic beta3 radioligand binding (ligand: [125I] Cyanopindolol). In kind it is cell membranes, HEK293, Membrane. The following applies: hek293; Not Active = under 50% inhibition at 10 µM.
Sequence of Beta-3 adrenergic receptor (P13945 whole entry): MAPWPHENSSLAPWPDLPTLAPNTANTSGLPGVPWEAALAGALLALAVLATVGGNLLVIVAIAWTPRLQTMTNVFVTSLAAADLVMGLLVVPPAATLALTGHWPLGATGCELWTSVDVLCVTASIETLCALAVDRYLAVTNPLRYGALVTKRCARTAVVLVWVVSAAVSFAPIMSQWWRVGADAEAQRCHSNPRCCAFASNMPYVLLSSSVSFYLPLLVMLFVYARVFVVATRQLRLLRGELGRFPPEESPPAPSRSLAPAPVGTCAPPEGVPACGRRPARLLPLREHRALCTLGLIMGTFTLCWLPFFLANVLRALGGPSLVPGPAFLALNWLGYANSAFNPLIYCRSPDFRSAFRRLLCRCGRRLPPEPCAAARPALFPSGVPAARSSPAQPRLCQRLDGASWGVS
The target in data set [17] is Cytochrome P450 2C19 (Homo sapiens, UniProt P33261). The following applies: bti-tn-5b1-4. Further: in other assays of this panel Not Active means under 50% inhibition at 10 µM.
Sequence of Cytochrome P450 2C19 (P33261 whole entry): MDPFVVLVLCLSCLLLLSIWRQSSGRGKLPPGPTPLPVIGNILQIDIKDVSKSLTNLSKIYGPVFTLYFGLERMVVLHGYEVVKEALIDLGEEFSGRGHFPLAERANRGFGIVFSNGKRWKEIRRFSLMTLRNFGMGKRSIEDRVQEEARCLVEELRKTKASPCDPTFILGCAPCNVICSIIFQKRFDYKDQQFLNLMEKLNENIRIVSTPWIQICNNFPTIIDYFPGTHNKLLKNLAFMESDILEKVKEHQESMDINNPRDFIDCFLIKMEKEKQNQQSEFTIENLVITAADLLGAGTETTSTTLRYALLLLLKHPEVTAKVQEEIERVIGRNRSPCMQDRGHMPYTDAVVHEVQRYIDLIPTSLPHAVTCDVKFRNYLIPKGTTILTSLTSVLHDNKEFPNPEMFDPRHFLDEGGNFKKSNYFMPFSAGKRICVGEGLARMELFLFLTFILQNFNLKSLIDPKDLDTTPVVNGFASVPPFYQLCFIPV

Sequence of Sodium-dependent dopamine transporter (Q01959 whole entry): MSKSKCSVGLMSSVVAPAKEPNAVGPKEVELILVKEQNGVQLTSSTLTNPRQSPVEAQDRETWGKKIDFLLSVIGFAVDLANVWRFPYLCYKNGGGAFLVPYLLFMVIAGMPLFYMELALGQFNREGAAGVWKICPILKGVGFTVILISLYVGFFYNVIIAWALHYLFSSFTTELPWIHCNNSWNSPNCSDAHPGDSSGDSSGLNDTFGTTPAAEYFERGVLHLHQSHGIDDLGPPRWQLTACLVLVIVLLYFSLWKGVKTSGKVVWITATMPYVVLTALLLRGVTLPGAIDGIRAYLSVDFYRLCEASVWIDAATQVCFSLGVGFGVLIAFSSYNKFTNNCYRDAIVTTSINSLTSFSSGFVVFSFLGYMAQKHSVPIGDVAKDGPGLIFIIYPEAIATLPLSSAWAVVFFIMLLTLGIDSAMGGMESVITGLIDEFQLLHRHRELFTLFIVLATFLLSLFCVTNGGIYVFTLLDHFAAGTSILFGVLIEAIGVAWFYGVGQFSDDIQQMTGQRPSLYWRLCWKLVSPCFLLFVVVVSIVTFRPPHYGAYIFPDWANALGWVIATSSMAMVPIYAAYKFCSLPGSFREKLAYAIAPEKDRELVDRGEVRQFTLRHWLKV
Sequence of 5-hydroxytryptamine receptor 4 (O70528 whole entry): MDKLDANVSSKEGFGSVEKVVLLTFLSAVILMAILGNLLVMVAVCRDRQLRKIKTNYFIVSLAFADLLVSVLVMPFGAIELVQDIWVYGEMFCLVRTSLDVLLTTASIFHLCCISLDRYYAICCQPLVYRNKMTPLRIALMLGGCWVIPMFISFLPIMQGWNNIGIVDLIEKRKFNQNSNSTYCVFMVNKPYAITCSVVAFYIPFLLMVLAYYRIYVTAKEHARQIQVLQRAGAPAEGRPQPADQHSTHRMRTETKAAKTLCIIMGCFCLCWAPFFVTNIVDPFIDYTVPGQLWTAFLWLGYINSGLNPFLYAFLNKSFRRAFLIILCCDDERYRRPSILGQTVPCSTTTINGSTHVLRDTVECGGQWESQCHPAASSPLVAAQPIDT

As to `CC(C)NC[C@H](O)COc1cccc2[nH]ccc12`, the IC50 entry in [1], in data set [2], in data set [3] (cho), in [4], in data set [5] and in data set [6] was “Not Active” each time. Moreover, the IC50 result in [7] (cho-k1), in data set [8], in data set [9], in data set [10] (cho-k1), in data set [11] and in [12] (cho-k1) was “Not Active” throughout. For the same compound, the IC50 entry in data set [13], in data set [14] and in data set [15] was “Not Active” in each case. The Ki result in data set [2], in [8], in data set [9], in data set [13] and in data set [15] was “Not Active” each time.

Take `Cn1cnc([N+](=O)[O-])c1Sc1ncnc2nc[nH]c12` [AZATHIOPRINE]: the IC50 result in data set [16], in data set [1], in [2], in data set [3] (cho), in data set [4] and in data set [5] was “Not Active” in each case. The IC50 entry in [6], in [7] (cho-k1), in data set [8], in [9], in [10] (cho-k1) and in data set [11] was “Not Active” throughout. Besides, the IC50 result in [12] (cho-k1), in data set [13], in data set [14] and in data set [15] was “Not Active” in each case. Moreover, the Ki entry in data set [2], in data set [8], in data set [9], in data set [13] and in data set [15] was “Not Active” each time.

As to `Oc1c(Cl)cc(Cl)cc1Sc1cc(Cl)cc(Cl)c1O` [BITHIONOL], the IC50 entry was “Not Active” in [16]; “Not Active” in data set [1]; “Not Active” in data set [2]; 4.66 µM in data set [3] (read-out: IC50); “Not Active” in [4]; “Not Active” in [5]. Further, the IC50 entry in data set [6], in data set [8], in data set [9], in [10] (cho-k1), in [11] and in data set [12] (cho-k1) was “Not Active” in each case. Moreover, the IC50 in [13] (read-out: IC50) was 2.72 µM; in data set [14], “Not Active”; in [15] it was “Not Active”; in data set [17], “Not Active”. The Ki entry in data set [2] is “Not Active”; in [3] (read-out: Ki), 1.55 µM; in [8] it was “Not Active”; in data set [9] it was “Not Active”; in data set [15] it was “Not Active”; in data set [17], “Not Active”.

Regarding `CNCCC=C1c2ccccc2CCc2ccccc21` [NORTRIPTYLINE], the 50% inhibitory concentration (IC50) entry in data set [16], in [1], in data set [2], in data set [3] (cho), in data set [4] and in [5] was “Not Active” in each case. Also, the IC50 result was “Not Active” in [6]; 1.68 µM in data set [7] (read-out: IC50); “Not Active” in [8]; “Not Active” in data set [9]; 2.33 µM in data set [10] (read-out: IC50); “Not Active” in data set [11]. The IC50 result in data set [13], in data set [14] and in data set [15] was “Not Active” in each case. Moreover, the Ki result in data set [2] is “Not Active”; in data set [7] (read-out: Ki), 1.33 µM; in data set [8], “Not Active”; in [9] it was “Not Active”; in data set [10] (read-out: Ki), 2.3 µM; in data set [13], “Not Active”. Besides, in data set [15], the inhibition constant (Ki) entry is given as “Not Active”.

Regarding `Fc1ccc([C@@H]2CCNC[C@H]2COc2ccc3c(c2)OCO3)cc1` [PAROXETINE], the IC50 result in data set [16], in data set [1], in data set [2], in data set [3] (cho), in [4] and in [5] was “Not Active” throughout. Further, the IC50 entry was “Not Active” in [6]; “Not Active” in data set [8]; “Not Active” in data set [9]; “Not Active” in [10] (cho-k1); “Not Active” in data set [11]; 0.244 µM in data set [12] (read-out: IC50). The IC50 entry in [13], in data set [14], in data set [15] and in data set [17] was “Not Active” each time. The Ki entry was “Not Active” in [2]; “Not Active” in data set [8]; “Not Active” in data set [9]; 0.034 µM in data set [12] (read-out: Ki); “Not Active” in data set [13]; “Not Active” in [15]. In [17], the Ki entry is “Not Active”.

For the origin of these results see ChEMBL document CHEMBL1909046, “DrugMatrix in vitro pharmacology data”.
